Laboratory results as given in ChEMBL document CHEMBL4184140, “Expanding the tetrahydroquinoline pharmacophore” (Bioorg Med Chem Lett, 2017).
Active and inactive are the calls of the source. The calls are words filed in the database; no cut-off is given here.

Key:
A549 = assay: Antiproliferative activity against human A549 cells; format: functional, cell-based
IMR-32 [1] = assay: Neurotrophic activity in human IMR32 cells assessed as appearance of neurites at 1 to 10 uM after 96 hrs by bright field microscopic analysis; format: functional, cell-based
MCF7 = assay: Antiproliferative activity against human MCF7 cells; format: functional, cell-based
HepG2 = assay: Antiproliferative activity against human HepG2 cells; format: functional, cell-based
IMR-32 [2] = assay: Cytotoxicity against human IMR32 cells after 48 hrs by SRB assay; format: cell-based; conditions: IMR-32, 48 h
DU-145 = assay: Antiproliferative activity against human DU145 cells; format: functional, cell-based
IMR-32 [3] = assay: Neurotrophic activity in human IMR32 cells assessed as induction of differentiation at 10 uM after 96 hrs by bright filed microscopic method; format: functional, cell-based
IMR-32 [4] = assay: Neurotrophic activity in human IMR32 cells assessed as increase in BDNF mRNA level at 10 uM by RT-PCR analysis; format: functional, cell-based
IMR-32 [5] = assay: Neurotrophic activity in human IMR32 cells assessed as length of neurite outgrown after 96 hrs by bright field microscopic analysis; format: functional, cell-based
IMR-32 [6] = assay: Neurotrophic activity in human IMR32 cells assessed as increase in NGF protein level at 10 uM by Western blot method; format: functional, cell-based
IMR-32 [7] = assay: Neurotrophic activity in human IMR32 cells assessed as increase in BDNF protein level at 10 uM by Western blot method; format: functional, cell-based
IMR-32 [8] = assay: Neurotrophic activity in human IMR32 cells assessed as increase in NGF mRNA level at 10 uM by RT-PCR analysis; format: functional, cell-based

| Structure (SMILES) | Activity (A549) | Activity (IMR-32 [1]) | Activity (MCF7) | Activity (HepG2) | IC50 (IMR-32 [2]) [µM] | Activity (DU-145) | Activity (IMR-32 [3]) | Activity (IMR-32 [4]) | Activity (IMR-32 [5]) | Activity (IMR-32 [6]) | Activity (IMR-32 [7]) | Activity (IMR-32 [8]) |
| --- | --- | --- | --- | --- | --- | --- | --- | --- | --- | --- | --- | --- |
| CC(=O)N1c2ccccc2[C@H]2[C@@H](O)[C@H](N=[N+]=[N-])C[C@H]2[C@H]1c1ccc(Cl)cc1 | inactive | inactive | inactive | inactive | > 100 | inactive | – | – | – | – | – | – |
| CC(=O)N1c2ccccc2[C@@H]2[C@@H](C[C@@H]3O[C@H]23)[C@H]1c1cccc(Br)c1 | inactive | inactive | inactive | inactive | > 100 | inactive | – | – | – | – | – | – |
| Cc1ccccc1[C@H]1Nc2ccccc2[C@H]2[C@@H](O)[C@@H](O)C[C@H]21 | inactive | inactive | inactive | inactive | > 100 | inactive | – | – | – | – | – | – |
| O[C@@H]1[C@@H]2c3ccc(F)cc3N[C@H](c3ccccc3)[C@@H]2C[C@@H]1O | inactive | inactive | inactive | inactive | > 100 | inactive | – | – | – | – | – | – |
| CC(=O)N1c2ccccc2[C@H]2[C@@H](O)[C@@H](O)C[C@H]2[C@H]1c1ccccc1 | inactive | inactive | inactive | inactive | > 100 | inactive | – | – | – | – | – | – |
| CC(=O)N1c2ccc(Br)cc2[C@H]2C=CC[C@H]2[C@H]1c1ccccc1 | inactive | inactive | inactive | inactive | 89.9 | inactive | – | – | – | – | – | – |
| C=CCO[C@@H]1[C@@H]2c3ccccc3N(C(C)=O)[C@H](c3ccc(Cl)cc3)[C@@H]2C[C@H]1N=[N+]=[N-] | inactive | inactive | inactive | inactive | 66.5 | inactive | – | – | – | – | – | – |
| CC(=O)N1c2cc([N+](=O)[O-])ccc2[C@@H]2[C@@H](C[C@@H]3O[C@H]23)[C@H]1c1ccccc1 | inactive | – | inactive | inactive | 56 | inactive | Active | – | – | – | – | – |
| Fc1ccc2c(c1)N[C@H](c1ccccc1)[C@@H]1CC=C[C@H]21 | inactive | inactive | inactive | inactive | > 100 | inactive | – | – | – | – | – | – |
| CC(=O)N1c2ccccc2[C@@H]2[C@@H](C[C@@H]3O[C@H]23)[C@H]1c1ccc(Cl)cc1 | inactive | inactive | inactive | inactive | > 100 | inactive | – | – | – | – | – | – |
| COc1cccc2c1C(=O)c1c(O)c3c(c(O)c1C2=O)C[C@@](O)(C(=O)CO)C[C@@H]3O[C@H]1C[C@H](N)[C@H](O)[C@H](C)O1 [DOXORUBICIN] | – | – | – | – | 8.49 | – | – | – | – | – | – | – |
| CC(=O)N1c2ccccc2[C@H]2C=CC[C@H]2[C@H]1c1ccccc1C | inactive | inactive | inactive | inactive | > 100 | inactive | – | – | – | – | – | – |
| CC(=O)N1c2cc([N+](=O)[O-])ccc2[C@H]2[C@@H](O)[C@H](N=[N+]=[N-])C[C@H]2[C@H]1c1ccccc1 | inactive | inactive | inactive | inactive | > 100 | inactive | – | – | – | – | – | – |
| CC(=O)N1c2ccccc2[C@H]2C=CC[C@H]2[C@H]1c1ccc(Cl)cc1 | inactive | inactive | inactive | inactive | 94.7 | inactive | – | – | – | – | – | – |
| O=[N+]([O-])c1ccc2c(c1)N[C@H](c1ccccc1)[C@@H]1CC=C[C@H]21 | inactive | inactive | inactive | inactive | > 100 | inactive | – | – | – | – | – | – |
| O[C@@H]1[C@@H]2c3ccccc3N[C@H](c3ccc(Cl)cc3)[C@@H]2C[C@@H]1O | inactive | inactive | inactive | inactive | 64.6 | inactive | – | – | – | – | – | – |

| Structure (SMILES) | Activity (A549) | Activity (IMR-32 [1]) | Activity (MCF7) | Activity (HepG2) | IC50 (IMR-32 [2]) [µM] | Activity (DU-145) | Activity (IMR-32 [3]) | Activity (IMR-32 [4]) | Activity (IMR-32 [5]) | Activity (IMR-32 [6]) | Activity (IMR-32 [7]) | Activity (IMR-32 [8]) |
| --- | --- | --- | --- | --- | --- | --- | --- | --- | --- | --- | --- | --- |
| C=CCO[C@@H]1[C@@H]2c3ccccc3N(C(C)=O)[C@H](c3cccc(Br)c3)[C@@H]2C[C@H]1N=[N+]=[N-] | inactive | inactive | inactive | inactive | > 100 | inactive | – | – | – | – | – | – |
| CC(=O)N1c2ccccc2[C@H]2C=CC[C@H]2[C@H]1c1ccccc1 | inactive | inactive | inactive | inactive | 61.6 | inactive | – | – | – | – | – | – |
| Brc1ccc2c(c1)[C@H]1C=CC[C@H]1[C@@H](c1ccccc1)N2 | inactive | inactive | inactive | inactive | 94.4 | inactive | – | – | – | – | – | – |
| O=[N+]([O-])c1ccc2c(c1)N[C@H](c1ccccc1)[C@@H]1C[C@H](O)[C@H](O)[C@H]21 | inactive | inactive | inactive | inactive | 57.1 | inactive | – | – | – | – | – | – |
| CC(=O)N1c2ccccc2[C@H]2[C@@H](O)[C@H](N=[N+]=[N-])C[C@H]2[C@H]1c1ccccc1 | inactive | – | inactive | inactive | > 100 | inactive | Active | Active | Dose-dependent effect | Active | Active | Active |
| CC(=O)N1c2ccccc2[C@H]2C=CC[C@H]2[C@H]1c1cccc(Br)c1 | inactive | inactive | inactive | inactive | > 100 | inactive | – | – | – | – | – | – |
| O[C@@H]1[C@@H]2c3cc(Br)ccc3N[C@H](c3ccccc3)[C@@H]2C[C@@H]1O | inactive | inactive | inactive | inactive | > 100 | inactive | – | – | – | – | – | – |
| Clc1ccc([C@H]2Nc3ccccc3[C@H]3C=CC[C@H]32)cc1 | inactive | inactive | inactive | inactive | > 100 | inactive | – | – | – | – | – | – |
| CC(=O)N1c2cc([N+](=O)[O-])ccc2[C@H]2C=CC[C@H]2[C@H]1c1ccccc1 | inactive | Active | inactive | inactive | > 100 | inactive | – | Active | Dose-dependent effect | Active | Active | Active |
| O[C@@H]1[C@@H]2c3ccccc3N[C@H](c3ccccc3)[C@@H]2C[C@@H]1O | inactive | inactive | inactive | inactive | > 100 | inactive | – | – | – | – | – | – |
| Brc1cccc([C@H]2Nc3ccccc3[C@H]3C=CC[C@H]32)c1 | inactive | inactive | inactive | inactive | > 100 | inactive | – | – | – | – | – | – |
| C=CCO[C@H]1C(n2cc(-c3ccccc3)nn2)C[C@@H]2[C@H]1c1ccccc1N(C(C)=O)[C@@H]2c1ccccc1 (single isomer, unassigned) | inactive | inactive | inactive | inactive | 65 | inactive | – | – | – | – | – | – |
| C=CCO[C@@H]1[C@@H]2c3ccccc3N(C(C)=O)[C@H](c3ccccc3)[C@@H]2C[C@H]1N=[N+]=[N-] | inactive | inactive | inactive | inactive | 17.4 | inactive | – | – | – | – | – | – |
| Cc1ccccc1[C@H]1Nc2ccccc2[C@H]2C=CC[C@H]21 | inactive | inactive | inactive | inactive | 87.2 | inactive | – | – | – | – | – | – |
| CC(=O)N1c2ccccc2[C@H]2[C@@H](O)[C@H](N=[N+]=[N-])C[C@H]2[C@H]1c1cccc(Br)c1 | inactive | inactive | inactive | inactive | > 100 | inactive | – | – | – | – | – | – |
